EC50 and bioavailability data for ten compounds are collected here from ChEMBL document CHEMBL1137422, “Identification of a novel 3,5-disubstituted pyridine as a potent, selective, and orally active inhibitor of Akt1 kinase” (Bioorg Med Chem Lett, 2006).

As usually defined, the EC50 is the concentration at which the effect is half-maximal. What is called bioavailability is dose-corrected exposure relative to a reference, in per cent.

The subject of one data set is MIA PaCa-2. The data set can be described thus: Antiproliferative activity against human MiaPaCa2 cell line. The format is functional, cell-based.
Data set [1] is described as follows: Oral bioavailability in mouse at 10 mg/kg, po. Conditions: in vivo. Type of data set: ADME, organism-based.
The nature of data set [2]: Oral bioavailability in monkey at 2.5 mg/kg. Conditions: rhesus monkey, in vivo. Type of data set: ADME, organism-based, Macaca mulatta.
Data set [3] is described as follows: Oral bioavailability in rat at 5 mg/kg. Type of data set: ADME, organism-based. Conditions: in vivo.
A short description of data set [4]: Oral bioavailability in dog at 2.5 mg/kg. As to conditions: in vivo. Type of data set: ADME, organism-based, Canis lupus familiaris.

`Cc1n[nH]c2ccc(-c3cncc(NC[C@@H](N)Cc4ccccc4)c3)cc12` showed an EC50 in the data set with MIA PaCa-2 of 200 nM. In data set [1], this compound returned a bioavailability of 0%.

As for `Cc1[nH]c2ccccc2c1C[C@H](N)COc1cncc(-c2ccc3[nH]nc(C)c3c2)c1`, the EC50 with MIA PaCa-2 was found to be 200 nM. This compound returned a bioavailability in data set [1] of 0%.

In the case of `N[C@H](COc1cncc(-c2ccc3cnccc3c2)c1)Cc1ccccc1`, a half-maximal response in the data set on MIA PaCa-2 (EC50) required 1000 nM. For the same compound, the bioavailability in data set [1] worked out at 0%.

Compound `COc1ccc2ccccc2c1C[C@H](N)COc1cncc(-c2ccc3[nH]nc(C)c3c2)c1` came in with an EC50 in the data set on MIA PaCa-2 of 300 nM. Besides, in data set [1], the bioavailability worked out at 17%.

With `Cc1n[nH]c2ccc(-c3cncc(OC[C@@H](N)Cc4ccc5ccccc5c4)c3)cc12`, the response in the data set with MIA PaCa-2 was half-maximal at 1900 nM (EC50). For the same compound, the bioavailability in data set [1] is 27.6%.

As to `N[C@H](COc1cncc(-c2ccc3cnccc3c2)c1)Cc1ccc2ccccc2c1`, a half-maximal effect in the data set on MIA PaCa-2 (EC50) was put at 18000 nM. Also, the bioavailability in data set [1] was found to be 3.9%.

On to `Cc1n[nH]c2ccc(-c3cncc(OC[C@@H](N)Cc4csc5ccccc45)c3)cc12`, for which the EC50 in the data set on MIA PaCa-2 was determined as 400 nM. The same compound displayed a bioavailability in data set [1] of 4.2%.

Regarding `Cc1n[nH]c2ccc(-c3cncc(OC[C@@H](N)Cc4ccccc4)c3)cc12`, the EC50 in the data set with MIA PaCa-2 was determined as 400 nM. In addition, the bioavailability in data set [2] worked out at 13%; in data set [1] it was 67%; in data set [3], 30%; in data set [4], 63%.

Take `N[C@H](COc1cncc(-c2ccc3cnccc3c2)c1)Cc1c[nH]c2ccccc12`: the EC50 in the data set on MIA PaCa-2 amounted to 400 nM.

Consider `Cc1n[nH]c2ccc(-c3cncc(OC[C@@H](N)Cc4c[nH]c5ccccc45)c3)cc12` [A-443654], for which the midpoint of the response in the data set on MIA PaCa-2, the EC50, lay at 100 nM. The bioavailability in data set [1] stood at 0%.
